From patent US20070128217A1 (priority 2003, published 2007)

Columns and labels:
[1] = tested on: recombinant human anti-SARS-CoV antibody 03-018; type: binding; set-up: Binding of antibody 03-018 to linear peptides of the N protein of SARS-CoV Urbani / Binding of antibody 03-018 to looped/cyclic peptides of the N protein of SARS-CoV Urbani: unit not given here
[2] = tested on: rabbit serum obtained by immunizing a rabbit with the SARS-CoV strain Frankfurt 1; type: binding; set-up: Binding of a rabbit serum to linear peptides / Binding of a rabbit serum to looped peptides / Rabbit serum linear peptides / Rabbit serum looped peptides / Binding of a rabbit serum to linear peptides of protein N of SARS-CoV Urbani (Rabbit serum linear peptides) / Binding of a rabbit serum to looped/cyclic peptides of protein N of SARS-CoV Urbani (Rabbit serum looped peptides): unit not given here
[3] = tested on: control sera (pooled serum of ten healthy LUMC hospital workers; commercial negative donor pooled serum from the Dutch bloodbank); type: binding, human; set-up: Binding of Control serum LUMC to linear peptides / Binding of Control serum Blood-bank to linear peptides / Binding of Control serum LUMC to looped peptides / Binding of Control Serum Blood-Bank to Looped peptides / Binding of Control serum LUMC to linear peptides of the protein M of SARS-CoV Urbani / Binding of Control serum Blood-bank to linear peptides of the protein M of SARS-CoV Urbani / Binding of Control serum LUMC to looped peptides of the protein M of SARS-CoV Urbani / Binding of Control Serum Blood-Bank to Looped peptides of the protein M of SARS-CoV Urbani: unit not given here
[4] = tested on: antibodies in sera from SARS patients (sera 1a, 1b, 2, 6, 37, 62, London, SARS-yellow, SARS-green); type: binding, human; set-up: Binding of serum 6 to linear peptides of protein X1 of SARS-CoV Urbani / Binding of serum 37 to linear peptides of protein X1 of SARS-CoV Urbani / Binding of serum 6 to looped/cyclic peptide (PEPSCAN-ELISA) / Binding of serum 37 to looped/cyclic peptide (PEPSCAN-ELISA) / Binding of serum 37 to looped/cyclic peptides of protein X1 of SARS-CoV Urbani / Binding of serum 6 to linear peptides of protein X2 / Binding of serum 37 to linear peptides of protein X2 / Binding of serum 37 to looped/cyclic peptides of protein X2 of SARS-CoV Urbani / Binding of serum 6 to linear peptides of protein M of SARS-CoV Urbani / Binding of serum 37 to linear peptides of protein M of SARS-CoV Urbani / Binding of serum 6 to looped/cyclic peptides of protein M of SARS-CoV Urbani / Binding of serum 37 to looped/cyclic peptides of protein M of SARS-CoV Urbani / Binding of serum 6 to linear peptides of protein X3 of SARS-CoV Urbani / Binding of serum 37 to linear peptides of protein X3 of SARS-CoV Urbani / Binding of serum 37 to looped/cyclic peptides of protein X3 of SARS-CoV Urbani / Binding of serum 6 to linear peptides of protein X4 of SARS-CoV Urbani / Binding of serum 37 to linear peptides of protein X4 of SARS-CoV Urbani / Binding of serum 37 to looped/cyclic peptides of protein X4 of SARS-CoV Urbani / Binding of serum 6 to linear peptides of protein X5 of SARS-CoV Urbani / Binding of serum 37 to linear peptides of protein X5 of SARS-CoV Urbani / Binding of serum 37 to looped/cyclic peptides of protein X5 of SARS-CoV Urbani / Binding of serum 6 to linear peptides of protein N of SARS-CoV Urbani / Binding of serum 37 to linear peptides of protein N of SARS-CoV Urbani / Binding of serum 6 to linear peptide (PEPSCAN-ELISA) / Binding of serum 1a to looped/cyclic peptides of protein N of SARS-CoV Urbani / Binding of serum 1b to looped/cyclic peptides of protein N of SARS-CoV Urbani / Binding of serum 2 to looped/cyclic peptides of protein N of SARS-CoV Urbani / Binding of serum 6 to looped/cyclic peptides of protein N of SARS-CoV Urbani / Binding of serum 37 to looped/cyclic peptides of protein N of SARS-CoV Urbani / Binding of serum 62 to looped/cyclic peptides of protein N of SARS-CoV Urbani / Binding of serum London to looped/cyclic peptides of protein N of SARS-CoV Urbani / Binding of serum SARS-green to looped/cyclic peptides of protein N of SARS-CoV Urbani: unit not given here

Row | Sequence | Binding of antibody 03-018 to linear peptides of the N protein of SARS-CoV Urbani [1] | Binding of antibody 03-018 to looped/cyclic peptides of the N protein of SARS-CoV Urbani [1] | Binding of a rabbit serum to linear peptides of protein N of SARS-CoV Urbani (Rabbit serum linear peptides) [2] | Binding of a rabbit serum to looped/cyclic peptides of protein N of SARS-CoV Urbani (Rabbit serum looped peptides) [2] | Binding of Control Serum Blood-Bank to Looped peptides [3] | Binding of Control serum Blood-bank to linear peptides [3] | Binding of Control serum LUMC to linear peptides [3] | Binding of Control serum LUMC to looped peptides [3] | Recognition of the peptide by the rabbit serum [2] | Binding of serum 1a to linear peptide (PEPSCAN-ELISA) [4] | Binding of serum 1a to looped/cyclic peptides of protein N of SARS-CoV Urbani [4] | Binding of serum 1b to linear peptide (PEPSCAN-ELISA) [4] | Binding of serum 1b to looped/cyclic peptides of protein N of SARS-CoV Urbani [4] | Binding of serum 2 to linear peptide (PEPSCAN-ELISA) [4] | Binding of serum 2 to looped/cyclic peptides of protein N of SARS-CoV Urbani [4] | Binding of serum 6 to linear peptide (PEPSCAN-ELISA) [4] | Binding of serum 6 to looped/cyclic peptides of protein N of SARS-CoV Urbani [4] | Binding of serum 37 to linear peptide (PEPSCAN-ELISA) [4] | Binding of serum 37 to looped/cyclic peptides of protein N of SARS-CoV Urbani [4] | Binding of serum 62 to linear peptide (PEPSCAN-ELISA) [4] | further results
1 | ASGGGETALALLLLD | 0.1 | 0.2 | 0.1 | 0.4 | 1.3 | 0.8 | 0.9 | 1.3 |  |  |  |  |  |  |  |  |  |  |  |  | 
2 | GTTLPKGFYAEGSRG | 0.1 | 0.2 | 0.2 | 0.3 | 0.5 | 0.6 | 0.6 | 0.6 |  |  |  |  |  |  |  |  |  |  |  |  | 
3 | KLDDKDPQFKDNVIL | 0.1 | 0.2 | 0.1 | 0.2 |  |  |  |  |  |  |  |  |  |  |  |  |  |  |  |  | Control Serum Blood-Bank Looped peptides [3]: 0.7; Control serum Blood-bank linear peptides [3]: 0.8; Control serum LUMC linear peptides [3]: 0.7; Control serum LUMC looped peptides [3]: 0.8
4 | KPRQKRTATKQYNVT | 0.1 | 0.2 | 0.3 | 0.0 | 0.4 | 0.8 | 0.7 | 0.4 |  |  |  |  |  |  |  |  |  |  |  |  | 
5 | KRTATKQYNVTQAFG | 0.1 | 0.2 |  |  | 0.6 | 0.7 | 0.8 | 0.6 | recognized |  |  |  |  |  |  |  |  |  |  |  | 
6 | NSTPGSSRGNSPARM | 0.2 | 0.3 |  |  |  |  |  |  | recognized | 0.7 | 0.8 | 0.5 | 0.7 | 0.4 | 0.6 | 0.6 | 0.4 | 1.2 | 0.6 | 1.2 | Binding of serum 62 to looped/cyclic peptides of protein N of SARS-CoV Urbani [4]: 0.6; Binding of serum London to linear peptide (PEPSCAN-ELISA) [4]: 1.6; Binding of serum London to looped/cyclic peptides of protein N of SARS-CoV Urbani [4]: 0.5; Binding of serum SARS-green to linear peptide (PEPSCAN-ELISA) [4]: 1.8; Binding of serum SARS-green to looped/cyclic peptides of protein N of SARS-CoV Urbani [4]: 0.4; Binding of serum SARS-yellow to linear peptide (PEPSCAN-ELISA) [4]: 1.5; Binding of serum SARS-yellow to looped/cyclic peptides of protein N of SARS-CoV Urbani [4]: 0.4
7 | PGSSRGNSPARMASG | 0.1 | 0.3 |  |  |  |  |  |  | recognized | 0.3 | 0.4 | 0.2 | 0.2 | 0.3 | 0.5 | 0.2 | 0.4 | 0.6 | 0.6 | 0.6 | Binding of serum 62 to looped/cyclic peptides of protein N of SARS-CoV Urbani [4]: 0.6; Binding of serum London to linear peptide (PEPSCAN-ELISA) [4]: 0.5; Binding of serum London to looped/cyclic peptides of protein N of SARS-CoV Urbani [4]: 0.5; Binding of serum SARS-green to linear peptide (PEPSCAN-ELISA) [4]: 0.5; Binding of serum SARS-green to looped/cyclic peptides of protein N of SARS-CoV Urbani [4]: 0.5; Binding of serum SARS-yellow to linear peptide (PEPSCAN-ELISA) [4]: 0.7; Binding of serum SARS-yellow to looped/cyclic peptides of protein N of SARS-CoV Urbani [4]: 0.4
8 | TPGSSRGNSPARMAS | 0.1 | 0.3 |  |  |  |  |  |  | recognized | 0.3 | 0.4 | 0.2 | 0.2 | 0.3 | 0.5 | 0.2 | 0.4 | 0.8 | 0.6 | 0.7 | Binding of serum 62 to looped/cyclic peptides of protein N of SARS-CoV Urbani [4]: 0.6; Binding of serum London to linear peptide (PEPSCAN-ELISA) [4]: 0.5; Binding of serum London to looped/cyclic peptides of protein N of SARS-CoV Urbani [4]: 0.5; Binding of serum SARS-green to linear peptide (PEPSCAN-ELISA) [4]: 0.6; Binding of serum SARS-green to looped/cyclic peptides of protein N of SARS-CoV Urbani [4]: 0.4; Binding of serum SARS-yellow to linear peptide (PEPSCAN-ELISA) [4]: 0.8; Binding of serum SARS-yellow to looped/cyclic peptides of protein N of SARS-CoV Urbani [4]: 0.5
